Data as given in patent publication US8476255B2, “Histone deacetylase inhibitors” (Orchid Chemicals & Pharmaceuticals Limited, priority 2007, dated 2013).

Key:
NCIH460 (lung) cells = experiment: Anti-cancer screen (MTT), NCIH460; assay type: cell-based; details: Homo sapiens, NCI-H460, NCIH460, 48 hours, MTT; for GI50: read-out: Cell growth inhibition NCIH460 (Lung) GI50; for LC50: read-out: Cell growth inhibition NCIH460 (Lung) LC50; for IC (TGI): read-out: Cell growth inhibition NCIH460 (Lung) TGI
Experimental: (§1) Experimental drugs were screened for anti-cancer activity in three cell lines using five concentrations for each compound. The cell lines —HCT 116 (colon), NCIH460 (lung) and U251 (glioma) were maintained in DMEM containing 10% fetal bovine serum. 96-well microtiter plates are inoculated with cells in 100 μL of cell suspension (5×10^4 cells/mL) for 24 hours at 37° C., 5% CO2, 95% air and 100% relative humidity. A separate plate with these cell lines is also inoculated to determine cell viability before the addition of the compounds (T0).
(§2) Following 24-hours incubation, test compounds were added to the 96 well plates. Each plate contains one of the above cell lines and the following samples in triplicate: five different dilutions (0.01, 0.1, 1, 10 and 100 μM) of four test compounds, appropriate dilutions of a cytotoxic standard and growth medium (untreated) wells. Test compounds were dissolved in DMSO to prepare 20 mM stock solutions on the day of drug addition and serial dilutions were carried out in complete growth medium at 2× strength such that 100 μL added to wells gave final concentrations (0.01, 0.1, 1, 10 and 100 μM) in the well. SAHA was used as standard drug in these experiments.
(§3) For T0 measurement, 24 hours after seeding the cells, 20 μL of 3-(4,5-dimethyl-2-thiazolyl)-2,5-diphenyl-2H-tetrazolium (MTT) solution per well was added to the ‘T0’ plate and incubated for 3 hours at 37° C. in a CO2 incubator. The plate containing cells and test compounds was treated similarly after 48 hours of incubation. After 3 hours of MTT addition, well contents were aspirated carefully followed by addition of 150 μL DMSO per well. Plates were agitated to ensure dissolution of the formazan crystals in DMSO and absorbance was read at 570 nm (A570).
(§4) (Mosmann T. Rapid colorimetric assay for cellular growth and survival: application to proliferation and cytotoxicity assays. J Immunol Methods 1983; 65(1-2): 55-63; Anne Monks et al. Feasibility of high-flux anticancer drug screen using a diverse panel of cultured human tumor cell lines”. JNCI, Vol. 83, No. 11, 1991).

[1] = system: NCIH460, HCT116 and U251 cells; experiment: Anti-cancer screen, mean GI50 over cell lines; assay type: cell-based; details: mean over cell lines; read-out: Cell growth inhibition Mean GI50
Experimental: as §1, §2, §3, §4

U251 (glioma) cells = experiment: Anti-cancer screen (MTT), U251; assay type: cell-based; details: Homo sapiens, U-251, U251, 48 hours, MTT; for GI50: read-out: Cell growth inhibition U251 (Glioma) GI50; for LC50 (concentration giving 50% net cell kill relative to the time-zero cell count): read-out: Cell growth inhibition U251 (Glioma) LC50; for IC (TGI): read-out: Cell growth inhibition U251 (Glioma) TGI
Experimental: as §1, §2, §3, §4

HCT 116 (colon) cells = experiment: Anti-cancer screen (MTT), HCT 116; assay type: cell-based; details: Homo sapiens, HCT-116, HCT116, 48 hours, MTT; for GI50: read-out: Cell growth inhibition HCT116 (Colon) GI50; for CC50: read-out: Cell growth inhibition HCT116 (Colon) LC50; for IC (TGI): read-out: Cell growth inhibition HCT116 (Colon) TGI
Experimental: as §1, §2, §3, §4

[2] = system: HDAC (Mouse Liver Extract); experiment: HDAC inhibition assay using Boc-Lys(Ac)-AMC substrate; assay type: biochemical; details: mouse liver enzyme
Experimental: Inhibition of HDAC has been implicated to modulate transcription and to induce apoptosis or differentiation in cancer cells. The fluorometric assay provides a fast and fluorescence based method that eliminates radioactivity, extractions or chromatography, as used in traditional assays. The assay is based on two steps. First, the HDAC fluorometric substrate, which comprises an acetylated lysine side chain, is incubated with a sample containing HDAC activity (Mouse Liver Extract). Deacetylation of the substrate sensitizes the substrate, in the second step; treatment with the Trypsin stop solution produces a fluorophore that can be easily analyzed using fluorescence plate reader. Assay was done in 96-well black microplate and total volume of the assay was […]. […] The plate was pre-incubated at 37° C. for 5 minutes. […] The plate was incubated at 37° C. for 30 min. The reaction was stopped by adding 100 μL, of Trypsin stop solution and incubating at 37° C. for 15-30 min. Measuring the fluorescence at excitation wavelength of 360 nm and emission wavelength of 460 nm monitored the release of AMC. Buffer alone and substrate alone served as blank. […] (Dennis Wegener et al, Anal. Biochem, 321, 2003, 202-208).

| Structure (SMILES) | GI50 (NCIH460 (lung) cells) [µM] | LC50 (NCIH460 (lung) cells) [µM] | IC (TGI) (NCIH460 (lung) cells) [µM] | GI50 [1] [µM] | GI50 (U251 (glioma) cells) [µM] | LC50 (concentration giving 50% net cell kill relative to the time-zero cell count) (U251 (glioma) cells) [µM] | IC (TGI) (U251 (glioma) cells) [µM] | GI50 (HCT 116 (colon) cells) [µM] | CC50 (HCT 116 (colon) cells) [µM] | IC (TGI) (HCT 116 (colon) cells) [µM] | HDAC inhibition % (1 μM) [2] [%] | HDAC inhibition % (10 μM) [2] [%] | IC50 [2] [µM] |
| --- | --- | --- | --- | --- | --- | --- | --- | --- | --- | --- | --- | --- | --- |
| Nc1ccccc1NC(=O)c1ccc(CNC(=O)/C(=C/c2ccc(F)c(F)c2)c2ccc(F)cc2)cc1 [Compound 1, N-(2-Aminophenyl)-4-((3-(3,4-difluorophenyl)-2-(4-fluorophenyl)acrylamido)methyl)benzamide] | 2.3 | 52 | 5.4 | 2.4 | 2.8 | 35 | 4.2 | 2.2 | 27 | 4.9 | 1.2 | 27.8 | – |
| COc1ccc(/C=C(/C(=O)NCc2ccc(C(=O)Nc3ccccc3N)cc2)c2ccccc2)cc1 [Compound 2, N-(2-Aminophenyl)-4-((3-(4-methoxyphenyl)-2-(phenyl)acrylamido)methyl)benzamide] | 2.9 | > 100 | 8.2 | 5 | 7.6 | > 100 | 39 | 4.4 | > 100 | 9.4 | 2.3 | 6.8 | – |
| Nc1ccccc1NC(=O)c1ccc(CNC(=O)/C(=C/c2ccccc2F)c2ccc(Cl)cc2)cc1 [Compound 3, N-(2-Aminophenyl)-4-((3-(2-fluorophenyl)-2-(4-chlorophenyl)acrylamido)methyl)benzamide] | 0.6 | > 100 | 52 | 6.6 | 16 | 85 | 39 | 3.2 | 100 | 10 | 5.1 | 16.4 | – |
| Nc1ccccc1NC(=O)c1ccc(CNC(=O)/C(=C/c2ccc(F)c(C(F)(F)F)c2)c2ccc(C(F)(F)F)cc2)cc1 [Compound 4, N-(2-Aminophenyl)-4-((3-(4-fluoro-3-trifluoromethylphenyl)-2-(4-trifluoromethylphenyl)acrylamido)methyl)benzamide] | 0.2 | 58.5 | 3.8 | 5.3 | 11.5 | > 100 | 41 | 4.1 | 77 | 26 | 0.0 | 14.2 | – |
| CSc1ccc(/C=C(/C(=O)NCc2ccc(C(=O)Nc3ccccc3N)cc2)c2ccc(F)cc2)cc1 [Compound 6, N-(2-Aminophenyl)-4-((3-(4-methylthiophenyl)-2-(4-fluorophenyl)acrylamido)methyl)benzamide] | 8.8 | 90 | 47 | 4.5 | < 0.01 | 83.2 | 22 | 4.8 | 95.8 | 46 | 4.2 | 25.8 | – |
| Nc1ccccc1NC(=O)c1ccc(CNC(=O)/C(=C/c2ccc([N+](=O)[O-])s2)c2ccc(F)cc2)cc1 [Compound 7, N-(2-Aminophenyl)-4-((3-(5-nitrothiophen-2-yl)-2-(4-fluorophenyl)acrylamido)methyl)benzamide] | 6.2 | 73.8 | 26.5 | 9.2 | 17 | 76 | 34.5 | 4.5 | 71.2 | 9.6 | 12.4 | 19.4 | – |
| COc1cc(/C=C(/C(=O)NCc2ccc(C(=O)Nc3ccccc3N)cc2)c2ccc(F)cc2)cc(OC)c1OC [Compound 8, N-(2-Aminophenyl)-4-((3-(3,4,5-trimethoxyphenyl)-2-(4-fluorophenyl)acrylamido)methyl)benzamide] | 89 | > 100 | > 100 | 60.2 | 67 | > 100 | 84.5 | 24.5 | > 100 | 82.5 | 21.4 | 26.4 | – |
| Nc1ccccc1NC(=O)c1ccc(CNC(=O)/C(=C/c2ccc(F)cc2Cl)c2ccccc2)cc1 [Compound 9, N-(2-Aminophenyl)-4-((3-(2-chloro-4-fluorophenyl)-2-(phenyl)acrylamido)methyl)benzamide] | 90 | > 100 | > 100 | 69.3 | 60 | > 100 | 79 | 58 | > 100 | 94 | 12.1 | 32.1 | – |
| Nc1ccccc1NC(=O)c1ccc(CNC(=O)/C(=C/c2ccc(F)cc2)c2ccccc2)cc1 [Compound 10, N-(2-Aminophenyl)-4-((3-(4-fluorophenyl)-2-(phenyl)acrylamido)methyl)benzamide] | 19.5 | 85 | 49 | 16.8 | 27 | 92 | 57 | 3.9 | 56 | 9 | 14.5 | 32.1 | – |
| COc1ccc(/C=C(/C(=O)NCc2ccc(C(=O)Nc3ccccc3N)cc2)c2ccc(F)cc2)cc1 [Compound 11, N-(2-Aminophenyl)-4-((3-(4-methoxyphenyl)-2-(4-fluorophenyl)acrylamido)methyl)benzamide] | 8 | 83 | 41.2 | 13 | 26.1 | 86 | 53 | 5 | 68.5 | 12.5 | 9.7 | 24.6 | – |
| CSc1ccc(/C=C(/C(=O)NCc2ccc(/C=C/C(=O)NO)cc2)c2ccc(F)cc2)cc1 [Compound 76, (1E)-N-(4-(3-(Hydroxyamino)-3-oxoprop-1-enyl)benzyl)-2-(4-fluorophenyl)-3-(4-methylthiophenyl)acrylamide] | 4.2 | > 100 | 42.5 | 4.6 | – | – | – | 5 | > 100 | 60 | 42.6 | 89.8 | 0.06 |
